# Reference: ChEMBL document CHEMBL4819001, “Discovery of tetrahydroquinolines and benzomorpholines as novel potent RORγt agonists” (Eur J Med Chem, 2021)
# How the values were obtained:
# [1] = target: T1, Nuclear receptor ROR-gamma (Homo sapiens, UniProt P51449); experiment: Inverse agonist activity at APC-labelled RORgammat (unknown origin) assessed as inhibition of biotinylated SRC recruitment measured after 1 hr by dual FRET assay
# T1 sequence (P51449 whole entry): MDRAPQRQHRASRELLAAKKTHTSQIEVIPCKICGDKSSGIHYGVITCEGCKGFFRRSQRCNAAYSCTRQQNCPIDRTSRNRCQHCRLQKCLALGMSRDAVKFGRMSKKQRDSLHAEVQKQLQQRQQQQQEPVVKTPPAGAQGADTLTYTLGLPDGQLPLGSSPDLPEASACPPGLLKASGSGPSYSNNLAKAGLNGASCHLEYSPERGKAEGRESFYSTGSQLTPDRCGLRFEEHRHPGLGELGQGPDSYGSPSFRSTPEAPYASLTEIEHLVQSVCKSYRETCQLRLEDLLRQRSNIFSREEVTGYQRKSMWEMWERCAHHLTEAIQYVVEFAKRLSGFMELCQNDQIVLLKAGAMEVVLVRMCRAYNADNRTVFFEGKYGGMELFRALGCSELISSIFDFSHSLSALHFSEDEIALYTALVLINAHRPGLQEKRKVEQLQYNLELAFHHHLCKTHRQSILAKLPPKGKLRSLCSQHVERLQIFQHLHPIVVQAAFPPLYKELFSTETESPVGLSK
# [2] = target: T2, Nuclear receptor ROR-gamma (Homo sapiens) (UniProt P51449); experiment: Inverse agonist activity at human RORgammat LBD expressed in HEK293T cells assessed inhibition of Gal4 reporter gene transcription measured after 16 to 20 hrs by luciferase reporter gene assay relative to control; assay type: cell-based; settings: filed as inverse agonist, time 16-20 hrs
# T2 sequence (whole entry): T1 sequence (P51449 whole entry)
# [3] = target: T1, Nuclear receptor ROR-gamma; experiment: Inverse agonist activity at human RORgammat LBD expressed in HEK293T cells assessed inhibition of Gal4 reporter gene transcription measured after 16 to 20 hrs by luciferase reporter gene assay; assay type: cell-based
# [4] = target: T1, Nuclear receptor ROR-gamma; experiment: Agonist activity at APC-labelled RORgammat (unknown origin) assessed as biotinylated SRC recruitment measured after 1 hr by dual FRET assay
# [5] = target: T3, Nuclear receptor ROR-gamma (Mus musculus) (UniProt P51450); experiment: Agonist activity at RORgammat in mouse CD4+ Th17 cells assessed as promotion of IL17 production at 300 nM measured after 4 days by intracellular staining based flow cytometry; assay type: cell-based; settings: filed as agonist, time 4.0 day
# T3 sequence (whole entry): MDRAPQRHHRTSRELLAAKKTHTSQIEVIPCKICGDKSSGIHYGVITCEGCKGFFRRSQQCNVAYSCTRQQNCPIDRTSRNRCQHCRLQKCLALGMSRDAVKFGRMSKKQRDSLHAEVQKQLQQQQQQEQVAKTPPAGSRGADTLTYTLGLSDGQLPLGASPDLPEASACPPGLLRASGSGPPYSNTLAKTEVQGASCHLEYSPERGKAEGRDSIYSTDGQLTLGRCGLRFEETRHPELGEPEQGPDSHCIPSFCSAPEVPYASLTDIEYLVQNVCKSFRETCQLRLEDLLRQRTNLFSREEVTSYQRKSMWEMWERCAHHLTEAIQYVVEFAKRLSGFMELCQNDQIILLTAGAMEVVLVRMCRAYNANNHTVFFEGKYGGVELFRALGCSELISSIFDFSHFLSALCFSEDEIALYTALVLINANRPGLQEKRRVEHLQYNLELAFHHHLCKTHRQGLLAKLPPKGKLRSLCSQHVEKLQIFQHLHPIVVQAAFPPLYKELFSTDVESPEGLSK
# [6] = target: T1, Nuclear receptor ROR-gamma; experiment: Agonist activity at human RORgammat LBD expressed in HEK293T cells assessed increase in Gal4 reporter gene transcription measured after 16 to 20 hrs by luciferase reporter gene assay; assay type: cell-based
# [7] = target: T3, Nuclear receptor ROR-gamma (Mus musculus); experiment: Agonist activity at RORgammat in mouse CD4+ Th17 cells assessed as promotion of IL17 production at 30 nM measured after 4 days by intracellular staining based flow cytometry; assay type: cell-based; settings: filed as agonist, time 4.0 day
EC50 [4] [nM],Compound,also measured
7.1,CCS(=O)(=O)c1ccc(CNC(=O)c2ccc(CCN3CCOc4ccc(CC(C)C)cc43)cc2)nc1,–
4.4,CC(Oc1ccc2c(c1)N(CCc1ccc(NC(=O)Cc3ccc(S(C)(=O)=O)cc3)cc1)CCO2)C(F)(F)F (centres undefined),–
25.9,CCS(=O)(=O)c1ccc(CNC(=O)Nc2ccc(CCN3CCCc4ccc(CC(C)C)cc43)cc2)cc1,–
22.1,CCS(=O)(=O)c1ccc(CC(=O)Nc2ccc(CCN3CCCc4ccc(C(C)C)cc43)cc2)cc1,–
16.7,CCS(=O)(=O)c1ccc(CC(=O)Nc2ccc(CCN3CCCc4ccc(C)cc43)cc2)cc1,–
30.3,CCS(=O)(=O)c1ccc(CC(=O)Nc2ccc(CCN3CCCc4ccc(CC(C)(C)C)cc43)cc2)cc1,–
7.5,CC(C)Oc1ccc2c(c1)N(CCc1ccc(C(=O)NCc3ccc(S(C)(=O)=O)cn3)cc1)CCO2,Activity [5]: 59.4%; EC50 [6]: 107 nM; Activity [7]: 45.2%
21.5,CCS(=O)(=O)c1ccc(CC(=O)Nc2ccc(CCN3CCCc4ccccc43)cc2)cc1,–
13,CCS(=O)(=O)c1ccc(CC(=O)Nc2ccc(CCN3CCCc4ccc(CC(C)C)cc43)c(F)c2)cc1,–
8.9,CCS(=O)(=O)c1ccc(CNC(=O)c2ccc(CCN3CCCc4ccc(CC(C)C)cc43)cc2)nc1,Activity [5]: 104%; EC50 [6]: 242 nM; Activity [7]: 56.3%

# More lines, now with the values behind:
Compound,EC50 [4] [nM],also measured
CCS(=O)(=O)c1ccc(CC(=O)Nc2ccc(CC(=O)N3CCCc4ccc(CC(C)C)cc43)cc2)cc1,–,IC50 [1]: 31.5 nM; Imax [2]: 101%; IC50 [3]: 151 nM
CCS(=O)(=O)c1ccc(CNC(=O)c2ccc(CCN3CCCc4ccc(OC5CCC5)cc43)cc2)nc1,12.2,–
CC(C)Oc1ccc2c(c1)N(CCc1ccc(NC(=O)Cc3ccc(S(C)(=O)=O)cc3)cc1)CCO2,4.4,–
CCS(=O)(=O)c1ccc(CC(=O)Nc2ccc(CCN3CCCc4ccc(OC5CCC5)cc43)cc2)cc1,15.6,–
CCS(=O)(=O)c1ccc(CC(=O)Nc2ccc(CCN3CCCc4ccc(C=C(C)C)cc43)cc2)cc1,5.3,–
CCS(=O)(=O)c1ccc(CC(=O)Nc2ccc(CCN3CCCc4ccc(CC5CC5)cc43)cc2)cc1,12.8,–
CCS(=O)(=O)c1ccc(CNC(=O)c2ccc(CCN3CCCc4ccc(OC(C)C)cc43)cc2)nc1,8.9,–
CCS(=O)(=O)c1ccc(CNC(=O)c2ccc(CCN3CCOc4ccc(OC(C)C)cc43)cc2)nc1,4.6,EC50 [6]: 135 nM
CCS(=O)(=O)c1ccc(CNC(=O)c2ccc(CCN3CCCc4ccc(OC5COC5)cc43)cc2)nc1,7.7,–
CCS(=O)(=O)c1ccc(CC(=O)Nc2ccc(CCN3CCCc4ccc(OC5COC5)cc43)cc2)cc1,6.6,–
CCS(=O)(=O)c1ccc(CC(=O)Nc2ccc(CCN3CCCc4ccc(F)cc43)cc2)cc1,11.5,–
CCS(=O)(=O)c1ccc(CC(=O)Nc2ccc(CCN3CCOc4ccc(OC(C)C)cc43)cc2)cc1,7.3,–
CCS(=O)(=O)c1ccc(C(CO)NC(=O)c2ccc(CCN3CCCc4ccc(CC(C)C)cc43)cc2)cc1 (centres undefined),20.9,–
CS(=O)(=O)c1ccc(CC(=O)Nc2ccc(CCN3CCOc4ccc(C(O)(C(F)(F)F)C(F)(F)F)cc43)cc2)cc1,–,IC50 [1]: 14.6 nM
CS(=O)(=O)c1ccc(CC(=O)Nc2ccc(CCN3CCOc4ccc(C(F)(C(F)(F)F)C(F)(F)F)cc43)cc2)cc1,46,–
